Data: BindingDB's records for doi:10.7270/Q290226P (Vanderbilt Screening Center For Gpcrs, Ion Channels and …, 2010)

Molecular target: T1, Muscarinic acetylcholine receptor M5 (Homo sapiens, UniProt P08912)
T1 sequence (P08912 whole entry): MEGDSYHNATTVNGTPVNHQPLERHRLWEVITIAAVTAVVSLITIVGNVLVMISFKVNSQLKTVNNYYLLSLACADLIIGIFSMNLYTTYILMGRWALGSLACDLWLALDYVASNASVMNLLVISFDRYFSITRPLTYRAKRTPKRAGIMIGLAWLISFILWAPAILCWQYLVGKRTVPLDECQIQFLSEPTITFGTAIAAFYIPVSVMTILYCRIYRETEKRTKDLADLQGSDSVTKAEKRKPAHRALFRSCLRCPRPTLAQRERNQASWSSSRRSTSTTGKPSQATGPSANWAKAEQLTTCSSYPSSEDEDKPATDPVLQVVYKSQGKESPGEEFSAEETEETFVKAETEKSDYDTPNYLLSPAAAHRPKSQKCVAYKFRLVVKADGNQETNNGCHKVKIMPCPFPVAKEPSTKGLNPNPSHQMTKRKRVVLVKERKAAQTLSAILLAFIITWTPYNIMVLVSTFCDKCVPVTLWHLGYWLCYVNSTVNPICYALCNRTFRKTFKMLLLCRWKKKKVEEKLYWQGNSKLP
Experiment: PubChem AID 2186

EC50 | SMILES
> 442 nM | O=C1C(=O)N(Cc2ccc(-c3ccccc3)cc2)c2ccc(OC(F)(F)F)cc21
> 442 nM | O=C1C(=O)N(Cc2ccc(-c3ccsc3)cc2)c2ccc(OC(F)(F)F)cc21

SMILES | EC50
COc1ccc(CN2C(=O)C(=O)c3cc(OC(F)(F)F)ccc32)cc1 [VU0238429] | 0.512 nM
